# Test results published in ChEMBL document CHEMBL1201862, “PubChem BioAssay data set” (2004).
#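 How tested: cells in 96-well plates exposed to compound for 48 hours at five concentrations. At the GI50, growth is halved.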 The source made the active and inactive calls. No stated cut-off is given here; in the data, active = GI50 up to about 1.1 µM and inactive = higher.
# Assays:
# Assay in all cases: growth of human tumour cells (NCI), 48 h
# [1] = system: NCI-H460
# [2] = system: BT-549
# [3] = system: A498
# [4] = system: COLO 205
# [5] = system: A549
# [6] = system: SF-268
# [7] = system: OVCAR-3
# [8] = system: SN12C
# [9] = system: ACHN
# [10] = system: MDA-N
# [11] = system: HOP-62
# [12] = system: Malme-3M
# [13] = system: DU-145
# [14] = system: SR
# [15] = system: IGROV-1
# [16] = system: OVCAR-8
# [17] = system: 786-0
# [18] = system: RPMI-8226
# [19] = system: T47D
# [20] = system: SK-MEL-28
# [21] = system: MDA-MB-231
# [22] = system: MCF7
# [23] = system: NCI-H522
# [24] = system: SF-539
# [25] = system: Hs-578T
# [26] = system: UACC-62
# [27] = system: SK-OV-3
# [28] = system: NCI-H226
# [29] = system: LOX IMVI
# [30] = system: MDA-MB-435
# [31] = system: HCT-15
# [32] = system: SK-MEL-5
# [33] = system: OVCAR-5
# [34] = system: CAKI-1
# [35] = system: SNB-19
# [36] = system: KM12
# [37] = system: NCI-H23
# [38] = system: HCC 2998
# [39] = system: SW-620
# [40] = system: MOLT-4
# [41] = system: NCI/ADR-RES
# [42] = system: SNB-75
# [43] = system: TK-10
# [44] = system: M14
# [45] = system: U-251
# [46] = system: PC-3
# [47] = system: HCT-116
smiles,measurement,setting,value
O=C1/C(=C/c2ccc(Cl)cc2)CNC/C1=C\c1ccc(Cl)cc1,GI50,[1],1350 nM (inactive)
same,GI50,[2],1180 nM (inactive)
same,GI50,[3],4650 nM (inactive)
same,GI50,[4],2140 nM (inactive)
same,GI50,[5],4760 nM (inactive)
same,GI50,[6],1510 nM (inactive)
same,GI50,[7],2010 nM (inactive)
same,GI50,[8],2590 nM (inactive)
same,GI50,[9],3280 nM (inactive)
same,GI50,[10],2710 nM (inactive)
same,GI50,[11],2430 nM (inactive)
same,GI50,[12],6080 nM (inactive)
same,GI50,[13],2650 nM (inactive)
same,GI50,[14],495 nM (active)
same,GI50,[15],1580 nM (inactive)
same,GI50,[16],2040 nM (inactive)
same,GI50,[17],1280 nM (inactive)
same,GI50,[18],500 nM (active)
same,GI50,[19],5000 nM (inactive)
same,GI50,[20],1500 nM (inactive)
same,GI50,[21],2880 nM (inactive)
same,GI50,[22],1520 nM (inactive)
same,GI50,[23],1920 nM (inactive)
same,GI50,[24],1150 nM (inactive)
same,GI50,[25],3470 nM (inactive)
same,GI50,[26],2430 nM (inactive)
same,GI50,[27],12100 nM (inactive)
same,GI50,[28],2440 nM (inactive)
same,GI50,[29],1570 nM (inactive)
same,GI50,[30],2820 nM (inactive)
same,GI50,[31],1160 nM
same,GI50,[32],4440 nM (inactive)
same,GI50,[33],4790 nM (inactive)
same,GI50,[34],1580 nM (inactive)
same,GI50,[35],1820 nM (inactive)
same,GI50,[36],1220 nM (inactive)
same,GI50,[37],1890 nM (inactive)
same,GI50,[38],1570 nM (inactive)
same,GI50,[39],638 nM (active)
same,GI50,[40],3720 nM (inactive)
same,GI50,[41],2910 nM (inactive)
same,GI50,[42],4360 nM (inactive)
same,GI50,[43],3950 nM (inactive)
same,GI50,[44],3710 nM (inactive)
same,GI50,[45],782 nM (active)
same,GI50,[46],2970 nM (inactive)
same,GI50,[47],830 nM (active)
